Reference: PMC11096368, “Transcriptomic signature, bioactivity and safety of a non-hepatotoxic analgesic generating AM404 in the midbrain PAG region” (Scientific Reports, 2024)
“Also recorded” adds a separate entry of the source. Where two headings read alike, the source gives them in different places.

What was measured:
[1] = test system: CD-1 male mice; conditions: for Mortality by 72 h: oral gavage, n = 10
Protocol: This analysis was critical for robustly comparing their toxic effects, with a particular focus on mortality at equivalent molar concentrations.
CD-1 male mice obtained from Charles River Laboratories underwent a one-week acclimation period. They were housed under a 12-h day/night cycle, with unrestricted access to food and water. Before experimentation, mice were fasted for 15 h. […] Each treatment group consisted of 10 mice. Post-dosing, the mice were monitored at 6-h intervals over 72 h for signs of becoming moribund. An investigator blinded to the treatment groups conducted the moribund state assessment.

[2] = biological target: T1, hERG current (Homo sapiens, UniProt Q12809); experiment: Cardiotoxicity assay (hERG); format: cell-based; conditions: human embryonic kidney cells
T1 construct: expressed in transfected cells; host or cells: human embryonic kidney cells
Protocol: The effects of SRP-001 on hERG current amplitude at physiologic temperatures were evaluated over a nominal concentration range of 0.1 μM to […]. A vehicle group (10% DMSO) was included in the study for comparison, and dofetilide (10 nM) was used as a reference substance. The vehicle and positive controls indicated appropriate sensitivity of the test systems. […] Next, the potential acute effects of oral SRP-001 on cardiovascular function in conscious telemetered beagle dogs was done using a Latin Square design; 4 male naïve beagle dogs each received vehicle (10% DMSO: 10% labrasol: 80% PEG400) and three doses (30, 90, and 150 mg/kg) of SRP-001 nanosuspension by oral gavage. […] A single dose was administered on the day of dosing, and a washout period of seven days was allowed between doses. One-min means of hemodynamic parameters, as well as ECG parameters and body temperature, were measured for a period of at least 24 h. One-min tracings of the ECGs were obtained at 15 min prior to dosing and at 30 min, 1, 2, 4, 8, 12, and 24 h post-dose. Qualitative evaluation of the ECGs was done by a board-certified veterinary cardiologist.

[3] = test system: Salmonella typhimurium strains TA98, TA100, TA1535, TA1537, and E. coli WP2 uvrA; experiment: Ames bacterial reverse mutation assay; format: cell-based, Escherichia coli
Protocol: SRP-001 was tested to evaluate its mutagenic potential by measuring its ability to induce reverse mutations at selected loci of several strains of Salmonella typhimurium (S. typhimurium) and at the tryptophan locus of Escherichia coli (E. coli) strain WP2 uvrA in the presence and absence of an exogenous metabolic activation system (Bioreliance, Rockville, MD USA). Dimethyl sulfoxide (10% DMSO) was used as the vehicle. The dose levels tested in the preliminary toxicity assay were 6.67, 10.0, 33.3, 66.7, 100, 333, 667, 1000, 3333, and 5000 µg per plate. No precipitate was observed. […] The dose levels tested in the mutagenicity assay were 100, 333, 667, 1000, 3333, and 5000 µg per plate.

[4] = 28-day oral toxicity study with 14-day recovery (GLP); format: in vivo, dog; conditions: both sexes, Beagle, dog, in vivo, oral; given T.I.D. for 28 days; read-out: No adverse effect level (NOAEL)
Protocol: (§1) SRP-001 was supplied by Olon Ricerca Bioscience as an off-white powder. The test article was then prepared into dosing suspensions for oral administration via gavage (Calvert Labs/Altasciences, Scott Township, PA USA). Thirty-two experimentally naïve Beagle dogs (16 males and 16 females), 8–9 months old and weighing 6.7–10.5 kg for males and females at the outset of the study, were administered 0, 165, 330, or 495 mg/kg/d. Animals were dosed three times daily (3–5 h between doses) for 28 consecutive days. Prior to this dosing schedule, the dosing was initiated with once daily dosing at 0, 100, 300, or 900 mg/kg at a dose volume of 5 to 10 ml/kg. Due to adverse clinical signs noted following dosing of all groups at a dose volume of 10 ml/kg, dosing of the animals was suspended on day 2 for males and day 1 for females. The study was restarted with T.I.D. dosing in lower dose volume to reduce vehicle-related toxicity.
(§2) In-life data from the initial start of the study using once daily dosing were not included in the report but are maintained in the study file. Following the restart of the study, the study was conducted as follows. Mortality/morbidity was performed twice daily and once prior to the scheduled sacrifice. Animals were observed prior to each dose administration and 1–3 h after each dose administration. Animals were also observed once daily on non-dosing days and once prior to scheduled sacrifice. Body weights were recorded prior to randomization/selection, prior to the first dose administration on day 1 and weekly thereafter. Food consumption was determined daily. Ophthalmology examinations and electrocardiograms were performed before treatment initiation and during the last week of dosing. Blood for evaluation of hematology, coagulation and clinical chemistry and urine for urinalysis was collected prior to treatment initiation and on days 29 and 43. Blood for toxicokinetic evaluation was collected at selected timepoints on days 1 and 28. All surviving animals were sacrificed on day 29 or day 43. Selected tissues were harvested at necropsy, selected organs weighed, and selected tissues evaluated microscopically.
(§3) Due to the limited magnitude of the changes in hematology parameters and the corresponding changes in reticulocytes, this finding was not considered adverse.
(§4) This finding was indicative of the biliary system starting to be overwhelmed and was considered adverse. Other microscopic findings of the liver included Kupffer cell pigment, Kupffer cell erythrophagocytosis, and Kupffer cell hypertrophy/hyperplasia. The Kupffer cell changes were thought to be, at least in part, due to phagocytosis of erythrocytes resulting in the accumulation of cytoplasmic pigment and increased demand for Kupffer cells resulting in hypertrophy/hyperplasia. These microscopic changes correlated with increased liver organ weights. Microscopic evaluation also identified thyroid gland follicular cell hypertrophy.
(§5) Only microscopic changes in Kupffer cell pigment and erythrophagocytosis and minimal increased erythroid cellularity of the bone marrow were still present in Group-4 animals following the recovery period. Exposure to SRP-001 was dose-dependent and generally dose-proportional to greater than dose-proportional from 165 to 330 mg/kg/d and less than dose-proportional from 330 to 495 mg/kg/d. Exposure to SRP-001 following 28 consecutive days of oral dosing was 2 to 5 times less than exposure observed on day 1. Based on the clinical signs, microscopic changes, and clinical pathology changes, the no-adverse-effect level for SRP-001 was 330 mg/kg/d when given T.I.D. for 28 d.

[5] = test system: beagle dogs; experiment: as above; format: in vivo, dog
Protocol: as §1, §2, §3, §4, §5

[6] = Toxicokinetics following IV & PO dosing; format: in vivo, dog; conditions: beagle dogs
Description: Supplementary Fig. 19. Toxicokinetic (TK) beagle dog data.

[7] = both, Beagle, dog, in vivo, po, 28 d

T1 sequence (Q12809 whole entry): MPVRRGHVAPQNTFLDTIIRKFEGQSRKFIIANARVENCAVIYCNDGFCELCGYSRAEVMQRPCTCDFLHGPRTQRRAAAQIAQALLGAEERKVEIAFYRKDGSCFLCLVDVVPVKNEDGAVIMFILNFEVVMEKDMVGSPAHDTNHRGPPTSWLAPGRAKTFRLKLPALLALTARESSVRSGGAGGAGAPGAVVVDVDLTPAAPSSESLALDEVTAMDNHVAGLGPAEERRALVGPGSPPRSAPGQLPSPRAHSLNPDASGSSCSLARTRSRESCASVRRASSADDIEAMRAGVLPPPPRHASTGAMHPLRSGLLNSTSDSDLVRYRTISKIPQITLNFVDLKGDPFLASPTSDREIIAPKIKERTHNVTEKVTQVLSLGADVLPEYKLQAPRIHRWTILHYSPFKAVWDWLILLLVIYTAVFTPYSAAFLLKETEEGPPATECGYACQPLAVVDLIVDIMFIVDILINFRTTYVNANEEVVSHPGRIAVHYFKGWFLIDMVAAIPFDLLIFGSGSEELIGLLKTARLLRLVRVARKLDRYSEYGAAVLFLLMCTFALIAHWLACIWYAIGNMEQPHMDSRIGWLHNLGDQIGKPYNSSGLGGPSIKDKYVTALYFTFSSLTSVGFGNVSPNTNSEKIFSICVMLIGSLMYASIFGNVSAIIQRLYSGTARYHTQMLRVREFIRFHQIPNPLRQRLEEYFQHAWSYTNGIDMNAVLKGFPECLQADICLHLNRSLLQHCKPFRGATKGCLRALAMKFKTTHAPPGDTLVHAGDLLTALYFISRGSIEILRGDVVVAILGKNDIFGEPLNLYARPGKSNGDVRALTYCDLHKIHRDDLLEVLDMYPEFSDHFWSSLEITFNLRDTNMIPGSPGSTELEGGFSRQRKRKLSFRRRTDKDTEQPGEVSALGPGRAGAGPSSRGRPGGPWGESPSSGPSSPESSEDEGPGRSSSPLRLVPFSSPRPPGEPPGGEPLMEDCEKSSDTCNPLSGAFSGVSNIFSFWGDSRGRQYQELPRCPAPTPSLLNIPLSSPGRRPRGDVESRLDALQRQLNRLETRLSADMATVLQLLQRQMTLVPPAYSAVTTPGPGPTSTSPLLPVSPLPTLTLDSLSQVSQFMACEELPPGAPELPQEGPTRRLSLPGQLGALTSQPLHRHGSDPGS

| SMILES | Mortality by 72 h ([1]; 1984 (ApAP 300 mg/kg)) | Mortality by 72 h ([1]; 3969 (ApAP 600 mg/kg)) | Mortality by 72 h ([1]; 5954 (ApAP 900 mg/kg)) | Mortality within 72 h ([1]; increasing equimolar doses, highest mortality reached) [%] | Signal in in vitro hERG assay [2] | Dose with toxicity (reduction in the revertant count) ([3]; preliminary toxicity assay, tester strains TA1537 and WP2 uvrA, absence of S9) [µg per plate] | Mutagenic response (reverse mutations) ([3]; up to 5000 µg per plate, presence or absence of S9 activation) | NOAEL at 28 d [4] [mg/kg/day] | Body weights, food consumption, ophthalmology, electrocardiology, coagulation, urinalysis ([5]; 28 days) | Reversibility after 14-day recovery period ([5]; both, Beagle, dog, in vivo, 14 d) | Doses without treatment-related adverse effects [5, 7] | Exposure after 28 consecutive days relative to day 1 [5, 7] | Clinical chemistry parameters ([5]; dog, in vivo) | Clinical signs ([5]; dog, in vivo) | Hematology parameters ([5]; dog, in vivo) | Reversibility after 14-day recovery period ([5]; dog, in vivo) | Exposure versus dose [6] | Time of Cmax [6] [min] |
| --- | --- | --- | --- | --- | --- | --- | --- | --- | --- | --- | --- | --- | --- | --- | --- | --- | --- | --- |
| CC(=O)Nc1ccc(O)cc1 [ApAP, acetaminophen, reference compound] | 1/10 | 3/10 | 7/10 | 70 |  |  |  |  |  |  |  |  |  |  |  |  |  |  |
| CCN(CC)C(=O)c1ccccc1S(=O)(=O)NCC(=O)Nc1ccc(O)cc1 [SRP-001, N,N-diethyl-2-[[2-(4-hydroxyanilino)-2-oxo-ethyl]sulfamoyl]benzamide] |  |  |  |  | absent relevant signal | 5000 | negative; also recorded: No positive mutagenic responses; also recorded: No positive mutagenic responses were observed with any of the tester strains in either the presence or absence of S9 activation | 330 | No SRP-001 related changes | nearly all SRP-001-related changes observed on day 29 were reversible | up to 330 mg/kg/day | 2-5 times less | increases in triglycerides and alkaline phosphatase and decreases in cholesterol | emesis, loose feces, and salivation | decreases in red blood cells, hemoglobin, hematocrit, and mean corpuscular hemoglobin concentration | nearly all SRP-001 related changes observed on Day 29 were reversible | dose-dependent response | 15 to 30 |
